One test has as its system A. fumigatus. Description: In vitro human neutrophil:hyphae growth inhibition assay (calcofluor white fluorometry). It is filed as cell-based, Aspergillus fumigatus. Conditions: for growth of A. fumigatus: incubation in media for 16 h. The protocol:
(§1) FIGS. 8(A-G) illustrate a schematic drawing, images, and graphs showing the effect of topical simvastatin and deriprone on fungal infection. A. Statin targeting of fungal HMG-CoA reductase in siderophore biosynthesis. B, C. Effect of statins and iron chelators on growth of A. fumigatus and F. oxysporum in vitro. B. Simvastatin, lovastatin, deferiprone, or deferroxamine were added to growing cultures of A. fumigatus or C. F. oxysporum for 16 h, and hyphal growth was quantified by calcofluor white. D. Growth of A. fumigatus incubated with these compounds in the absence (black bars) or presence (gray bars) of human neutrophils by calcofluor white quantification (data are mean+/−SEM of five replicate wells) E. C57BL/6 mice were infected with A. fumigatus and at 0 and 6 h post-infection 13.4 μg of simvastatin (Sv), deferiprone (11.1 μg), deferroxamine (52.5 μg), Sv+ deferiprone, or Sv+ deferroxamine was applied topically to infected corneas and eyes were imaged at 24 h post-infection. F. Metamorph image analysis was used to quantify fungal dsRed expression and G. eyes were homogenized for CFU analysis. B-D: data are mean+/−SEM of five replicate wells; F, G: data points represent individual corneas.
Human neutrophils were isolated from normal, healthy donors using Ficoll-Paque Plus (GE) density centrifugation as described. Isolated conidia from each A. fumigatus mutant were cultured in 200 μl SDA media (12,500/well) in black-wall 96 well plates with an optically clear bottom (CoStar 3720) until early germ tubes were observed (4-6 h). Wells were washed twice with sterile ddH2O and incubated 16 h with either RPMI media (+ Control), PBS (− Control), or a sublethal dose of human peripheral blood neutrophils in RPMI (0.5−1*10^5/well). At 16 h post-exposure, plates were washed once and stained with 50 μl calcofluor white stain (Binds chitin; Fluka 18909) for 5 min in the dark. Subsequently, plates were washed three times with ddH2O and quantified by fluorometry (360/440 nm; Synergy HT; Biotek).
HMG CoA reductase is required for mevalonate production and can be targeted by statins resulting in decreased siderophore biosynthesis (FIG. 8A). To determine the effect of blocking this pathway on fungal growth, A. fumigatus and Fusarium oxysporum were incubated in media with simvastatin and lovastatin, or with the iron chelators, deferiprone and deferroxamine.

Test [1] has as its system A. fumigatus strain dsRed. The class given is in vivo, Aspergillus fumigatus. The settings on record: C57BL/6 mice. The protocol: Aspergillus and Fusarium strains were cultured as described above for 2-3 days, and fresh conidia were disrupted with a bacterial L-loop, harvested in 5 ml PBS, and filtered through sterile PBS soaked cotton gauze in a 10 ml syringe to obtain pure conidial suspensions. Conidia were quantified using a hemocytometer and adjusted in PBS to a final stock solution of 15-20,000 conidia/μl. Mice were anaesthetized with 1.25% 2,2,2-tri-bromoethanol in PBS. The corneal epithelium was abraded using a 30-gauge needle, through which a 2 μl injection containing conidia was released into the corneal stroma using a 33-gauge Hamilton syringe. Mice were examined daily under a stereomicroscope for corneal opacification, and quantified by image analysis using Metamorph software as described. At each time point, animals were euthanized by CO2 asphyxiation, and eyes were either placed in 10% formalin and embedded in paraffin, sectioned at 5 μm intervals and stained with periodic acid schiff and hematoxylin (PASH), or were placed in 1 ml of sterile PBS, homogenized and colony forming units (CFU) were quantified by manual count.
For topical drug delivery, compounds were suspended in a commercial eye drop formulation (Alcon laboratories) or in PBS and 8 μl applied topically at 0 h and 6 h post-infection. Lactoferrin (1.25 mg/ml), deferiprone (10 mM), deferroxamine (10 mM), and simvastatin (4 mM) were purchased from Sigma Aldrich (St. Louis, Mo.). BEC (28 mM) was obtained from Cayman chemicals (Ann Arbor, Mich.). E. coli-expressed recombinant human lipocalin-1 was purified as described previously and applied topically at 2 mg/ml. Iron-dextran and deferroxamine were both purchased from Sigma and administered systemically to mice via daily I.P. injections of 5 mg starting at day −2 until mice were euthanized. All animals were bred under specific pathogen-free conditions and maintained according to institutional guidelines.
Growth of the RFP expressing A. fumigatus strain in the cornea was detected using fluorescent microscopy and quantified by Metamorph image analysis. For assessment of fungal viability, whole eyes were homogenized under sterile conditions in 1 ml PBS, using the Mixer Mill MM300 (Retsch) at 33 Hz for 4 min. Subsequently, 100 μl aliquots were plated onto bacteriologic-grade sabouraud dextrose agar plates, incubated for 24 h at 37° C. (Aspergillus) or at 30° C. (Fusarium and Alternaria), and the number of CFUs was determined by direct counting.

The subject of a further test is F. oxysporum. As to the kind of experiment: In vitro hyphal growth of F. oxysporum with statins and iron chelators (calcofluor white). The class given is cell-based, Fusarium oxysporum. Conditions: incubation in media for 16 h; b217 says results similar to A. fumigatus (less growth with statins and deferiprone, not deferroxamine). The procedure:
as §1, with “B-D: data are mean+/−SEM of five replicate wells; F, G: data points represent individual corneas.” left out
Human neutrophils were isolated from normal, healthy donors using Ficoll-Paque Plus (GE) density centrifugation as described. […] Subsequently, plates were washed three times with ddH2O and quantified by fluorometry (360/440 nm; Synergy HT; Biotek). […]

Setting [2] is: plus human neutrophils, vs neutrophils alone.
Setting [3] is: topical 16 μg/8 μl at 0 h and 6 h after infection, vs infected mice without exogenous Lcn-1.
The mark [4] stands for this setting: topical 10.4 μg in 8 μl at 0 h and 6 h post-infection, 24 h post-infection, vs vehicle.

Like-named read-outs stand apart in the source and are kept apart here.

Turning to `Cc1c(O)c(=O)ccn1C` [deferiprone, 1,2 dimethyl-3-hydroxypyrid-4-1], the “growth of A. fumigatus” value in the test with A. fumigatus (no neutrophils) is reported as “significantly less growth”. Moreover, in the test with A. fumigatus (setting [2]), the “A. fumigatus growth in the presence of human neutrophils” value is recorded as “inhibited”. Besides, in test [1] (topical at 0 and 6 h post-infection (simvastatin 13.4 μg, deferiprone 11.1 μg, deferroxamine 52.5 μg), 24 h, vs vehicle-treated mice), the “fungal dsRed emission” value is reported as “significantly less”.

Take `CC[C@H](C)C(=O)O[C@H]1C[C@@H](C)C=C2C=C[C@H](C)[C@H](CC[C@@H]3C[C@@H](O)CC(=O)O3)[C@H]21` [lovastatin]: the “growth of A. fumigatus” value in the test with A. fumigatus (no neutrophils) is reported as “significantly less growth”. For the same molecule, in the test on A. fumigatus (setting [2]), the “A. fumigatus growth in the presence of human neutrophils” value was “inhibited”. Moreover, the “growth of Fusarium oxysporum” value in the test with F. oxysporum was “significantly less fungal cell growth”.

Turning to `N=C(NO)NCC[C@H](N)C(=O)O` [nNOHA, N^ω-Hydroxy-nor-L-arginine], the fungal growth result in the test with A. fumigatus (100 μM, no neutrophils, vs RPMI alone) was “significantly lower than in RPMI alone”. Also, the “fungal growth when incubated with neutrophils” value with A. fumigatus (plus human neutrophils, vs neutrophils alone, concentration not given) is “not significantly different from neutrophils alone”.

Regarding “Lcn-1: E. coli-expressed recombinant human lipocalin-1, siderophore binding protein”, the “A. fumigatus growth in the presence of neutrophils” value in the test with A. fumigatus (4 μg/ml plus human neutrophils, vs neutrophils alone or Lcn-1 alone) was “significantly less than in the presence of neutrophils alone or with Lcn-1 alone”. Also, in the test on A. fumigatus (4 μg/ml, absence of neutrophils), the fungal growth result is on record as “significantly less”. In the test with A. fumigatus (40 μg/ml, absence of neutrophils), the fungal growth result is “significantly less”. Also, in test [1] (setting [3]), the CFU result is recorded as “significantly less” and the “fungal dsRed” value was “significantly less”.

Turning to lactoferrin, in test [1] (setting [4]), the CFU result is on record as “significantly less” and the “fungal mass (dsRed)” value is listed as “significantly less”.

The record behind these values is US11229685B2, “Fungal iron acquisition inhibitors and uses thereof” (priority 2013, dated 2022).
